Assay results published in patent publication US12043599B2, “Herbicidal compounds” (SYNGENTA PARTICIPATIONS AG, priority 2018, dated 2024).

Key:
Format in all cases: in vivo
[1] = test system: Setaria faberi (SETFA); experiment: Post-emergence herbicidal glasshouse test, percentage damage
Procedure, shortened: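 Wheat, barley and Setaria faberi were sprayed post-emergence after 8 days' growth (24/16 °C, 14 h light, 65% humidity) with compound in acetone/water (50:50) containing 0.5% Tween 20, at the indicated rates. On wheat, compounds were also applied with cloquintocet-mexyl at 50 g/ha. Damage was scored after 13 days on a five-point scale (5=80-100% to 1=0-19%).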

[2] = test system: wheat; experiment: Post-emergence crop safety test on wheat crop plants
Procedure: (§1) Seeds of a variety of test species are sown in standard soil in pots (Lolium perenne (LOLPE), Setaria faberi (SETFA), Alopecurus myosuroides (ALOMY), Echinochloa crus-galli (ECHCG), Avena fatua (AVEFA)). After cultivation for one day (pre-emergence) or after 8 days cultivation (post-emergence) under controlled conditions in a glasshouse (at 24/16° C., day/night; 14 hours light; 65% humidity), the plants are sprayed with an aqueous spray solution derived from the formulation of the technical active ingredient in acetone/water (50:50) solution containing 0.5% Tween 20 (polyoxyethelyene sorbitan monolaurate, CAS RN 9005-64-5). Compounds are applied at […]. The test plants are then grown in a glasshouse under controlled conditions in a glasshouse (at 24/16° C., day/night; 14 hours light; 65% humidity) and watered twice daily. After 13 days for pre and post-emergence, the test is evaluated for the percentage damage caused to the plant. The biological activities are shown in the following table on a five point scale (5=80-100%; 4=60-79%; 3=40-59%; 2=20-39%; 1=0-19%).
Using procedures outlines above, wheat and barley crop plants and a weed species (SETFA) are treated post-emergence with compound A11 of the present invention or comparator compound C1 (Compound A-38 from WO2014/096289) at the application rates indicated. The compounds were also applied to wheat in conjunction with the safener compound cloquintocet-mexyl (CQC) at 50 g/ha.

[3] = test system: barley; experiment: Post-emergence crop safety test on barley crop plants
Procedure: as §1
Using procedures outlines above, wheat and barley crop plants and a weed species (SETFA) are treated post-emergence with compound A11 of the present invention or comparator compound C1 (Compound A-38 from WO2014/096289) at the application rates indicated. […]

CC#Cc1cc(C)c(C2C(=O)CC3(CCN(C(=O)OC)CC3)CC2=O)c(C)c1 [Compound A11]
overall weed control [1]: good overall weed control
SETFA, percentage damage ([1]; rate 30): 100%
SETFA, percentage damage ([1]; rate 60): 100%
Wheat, percentage damage ([2]; rate 30): 10%
Wheat, percentage damage ([2]; rate 60): 30%
Wheat, percentage damage ([2]; rate 60 + CQC (safener cloquintocet-mexyl at 50 g/ha)): 0%
crop safety vis-à-vis prior art compound C1 ([2]; wheat and barley): significantly improved crop safety
Barley, percentage damage ([3]; rate 30): 10%
Barley, percentage damage ([3]; rate 60): 40%
